From US5418224A, “4,13-dioxabicyclo[8.2.1]tridecenone compounds and pharmaceutical compositions containing them” (Kali-Chemie Pharma GmbH, priority 1992, dated 1995) come the findings set out here.

SMILES strings stand for the structures.

One test has as its target T1, motilin receptors (Oryctolagus cuniculus, UniProt G1T803).
T1 construct: fraction of a tissue homogenate from rabbit antrum; from tissue; host or cells: rabbit antrum, mucosa removed, crude membrane preparation
Description: Binding capacity to motilin receptors: displacement of 125-iodine-labelled motilin, rabbit antrum crude membrane preparation. Particulars: rabbit antrum crude membrane fraction, iodinated motilin 50 pM, 30° C., 60 minutes; read-out: pIC50 value (50% inhibition of the specific binding of the iodinated motilin to the motilin receptors) (converted). The procedure:
1. Determination of the binding capacity of the test substances to motilin receptors.
The affinity of the compounds of the formula I for motilin receptors is measured in vitro on a fraction of a tissue homogenate from rabbit antrum. The displacement of radioactively labelled iodinated motilin from motilin receptor binding by the test substances is determined.
The receptor binding studies were carried out by a modification of the method of Borman et al. (Regulatory Peptides 15 (1986), 143-153). To prepare the ^125 iodine-labelled motilin, motilin is iodinated enzymatically using lactoperoxidase in a known manner, for example analogously to the method described by Bloom et al. (Scand. J. Gastroenterol. 11 (1976) 47-52). […]
For the binding test, 200 μl of the crude membrane fraction (0.5-1 mg of protein) in 400 μl of a buffer solution A (50 mM tris-HCl buffer, 1.5% BSA, 10 mM MgCl2, pH 8.0) were incubated with 100 μl of iodinated motilin diluted in buffer solution B (10 mM tris-HCl buffer, 1% BSA, pH 8) (final concentration 50 pM) at 30° C. for 60 minutes. […] The residue obtained as pellet after the centrifugation was washed with buffer solution B and counted in a gamma counter. […] From this the corresponding pIC50 value was calculated.

Test [1] concerns beagle dogs. Description: In vivo determination of the effect on the resting tone of the esophagus sphincter (pull-through manometry). Particulars: conscious fasting beagle dogs, 0.251 μmole/kg intraduodenally. The procedure:
3. In vivo determination of the effect of the substances on the resting tone of the esophagus sphincter.
This determination is carried out on trained, conscious, fasting beagle dogs which, before the test, have each been given an esophagus fistula and a duodenal cannula. The pressure of the lower esophagus sphincter is measured by means of a perfused catheter system which has a lateral opening and which is connected to a pressure transducer and a recorder. The catheter is passed through the esophagus fistula into the stomach and then slowly withdrawn manually (=pull-through manometry). A peak is recorded when the catheter part with the lateral opening passes through the high-pressure zone of the lower esophagus sphincter. The pressure in mm Hg is determined from this peak.
In this way, initially the basal pressure of the esophagus sphincter is determined as control value. Subsequently, the test substance is administered intraduodenally and, after 15 minutes, the pressure at the lower esophagus sphincter is measured at 2-minute intervals for a period of 46 minutes. The increase in the pressure after administration of test substance compared with the previously determined basal pressure is calculated.

In test [2] the test system is beagle dogs. Description: In vivo determination of the effect on the rate of gastric emptying. The procedure:
2. In vivo determination of the effect of the substances on the rate of gastric emptying.
The determination of the rate of gastric emptying was carried out on beagle dogs which, before the test, had undergone surgical establishment of an esophagus fistula and implantation of a duodenal cannula. 15 minutes after duodenal administration of the test substances, the fasting conscious dogs were given 285 g of a semisolid caloric test meal through the esophagus fistula. The contents emptied from the stomach were collected through the duodenal cannula at 15-minute intervals. From the collected amounts of stomach contents, the time within which 50% emptying of the stomach takes place was calculated. The time is reported as measure of gastric emptying.

T1 sequence (G1T803 1-400): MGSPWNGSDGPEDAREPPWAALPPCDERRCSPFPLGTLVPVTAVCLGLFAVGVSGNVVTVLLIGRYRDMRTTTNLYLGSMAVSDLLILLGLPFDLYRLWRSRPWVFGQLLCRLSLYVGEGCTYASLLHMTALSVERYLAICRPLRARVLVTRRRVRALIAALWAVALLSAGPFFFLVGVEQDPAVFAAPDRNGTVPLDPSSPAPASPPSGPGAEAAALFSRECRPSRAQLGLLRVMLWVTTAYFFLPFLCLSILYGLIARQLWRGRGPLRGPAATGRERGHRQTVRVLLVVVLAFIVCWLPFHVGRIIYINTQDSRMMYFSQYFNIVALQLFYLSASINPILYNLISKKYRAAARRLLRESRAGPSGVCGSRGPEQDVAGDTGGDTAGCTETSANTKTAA

For the compound `CC[C@@H](O)[C@@](C)(O)[C@@H]1OC(=O)[C@H](C)[C@@H](O[C@H]2C[C@@](C)(OC)[C@@H](O)[C@H](C)O2)[C@H](C)[C@@H](O[C@@H]2O[C@H](C)C[C@H](N(C)C(C)C)[C@H]2O)[C@@]2(C)CC(C)=C(O2)[C@@H]1C` [Example 1, [2R,3R(2R',3R'),6R,7S,8S,9R,10R]-3-(2',3'-dihydroxypent-2'-yl)-7-[(2,6-dideoxy-3-C-methyl-3-0-methyl-α-L-ribo-hexopyranosyl)-oxy]-9-[(3,4,6-trideoxy-3-(N-methyl-N-isopropylamino)-β-D-xylo-hexopyranosyl)-oxy]-2,6,8,10,12-pentamethyl-4,13-dioxabicyclo[8.2.1]tridec-12-en-5-one], the IC50 on motilin receptors is 4.79 nM. In addition, the “change of basal tone of the esophagus sphincter” value with beagle dogs [1] (compared with basal pressure) is “more than doubled”. Moreover, in the test with beagle dogs [1] (throughout duration of the test), the “persistence of the effect on esophagus sphincter tone” value is at least 45 min. Moreover, in the test with beagle dogs [2] (beagle dogs, dose of 0.46 μmole/kg, duodenal administration), the “effect on gastric emptying (in words)” value is “distinct stimulation of gastric emptying”. In addition, the “time for 50% emptying of the stomach” value in the test with beagle dogs [2] (fasting conscious beagle dogs, 0.46 μmole/kg duodenal, 15 minutes before semisolid caloric test meal, control animal group 46 minutes) amounted to 27 min.
